Patent US10882860B2, “Treatment of osteoarthritis” (Samumed, LLC, priority 2015, dated 2021)
Marks after values point to notes of the source that are not given here.

Legend:
[1] = system: chondrogenic and osteogenic gene expression in human MSCs; assay: Chondrogenic and osteogenic gene expression, qRT-PCR in human MSCs; assay type: cell-based; conditions: 10 nM and 30 nM, 21 days
Protocol: Human MSCs were plated in 10 cm dishes in chondrogenic induction medium (Lonza; DMEM, dexamethasone, ascorbate, insulin-transferrin-selenium [ITS supplement], gentamycin-amphotericin [GA-1000], sodium pyruvate, proline and L-glutamine) and treated with the compound of Formula (I) in DMSO (10 nM and 30 nM) or TGF-β3 (20 μg/mL) as a positive control. Cells were incubated at 37° C., 5% CO2 for 21 days, with media changes every 5 days. Cells were pelleted and washed, and total RNA was isolated and purified using RNeasy Plus Mini Kit (Qiagen). cDNA was synthesized from 1 μg of total RNA using QuantiTect Reverse Transcription kit (Qiagen). qRT-PCR was performed with QuantiTect SYBR Green PCR Kit (Qiagen) and gene-specific primers, using CFX384 thermal cycler (Biorad). Transcripts were quantitated by comparative Ct method and normalized to endogenous controls, β-actin and GAPDH. Fold changes were normalized to DMSO treated cells.

[2] = system: moderate-to-severe symptomatic knee OA subjects; assay: Phase 1 MRI and radiograph study (bone marrow edema, cartilage thickness, joint space width); assay type: in vivo, human; conditions: for Bone Marrow Edema [N(%)]: Baseline Diffuse, Week 12 Diffuse / Bone Marrow Edema [N(%)]: Baseline Diffuse, Week 12 Focal / Bone Marrow Edema [N(%)]: Baseline Diffuse, Week 12 None / Bone Marrow Edema [N(%)]: Baseline Focal, Week 12 Diffuse / Bone Marrow Edema [N(%)]: Baseline Focal, Week 12 Focal / Bone Marrow Edema [N(%)]: Baseline Focal, Week 12 None / Bone Marrow Edema [N(%)]: Baseline None, Week 12 Diffuse / Bone Marrow Edema [N(%)]: Baseline None, Week 12 Focal / Bone Marrow Edema [N(%)]: Baseline None, Week 12 None: MRI; for change from baseline in joint space width (radiograph): Week 24
Source text: To assess the safety and efficacy of the compound of Formula (I) (Form 1), magnetic resonance imaging (MM) was used. Safety evaluations included assessment of bone marrow edema by Mill. MM was used to document changes from baseline in total cartilage volume and thickness in the compartments of the target knee joint. Imaging results (safety and exploratory outcomes) in the Phase 1 study are described above.
Knee MRIs were obtained with a 16 channel knee coil on a 3.0T MRI machine using a standard diagnostic protocol (resolution 0.1-0.4 mm). MM scans were collected at the baseline visit (which could occur ≤28 days prior to study injection) and again at Weeks 12 and 24. The sponsor was unblinded after Week 12 for each cohort; site investigators remained blinded.
An exploratory analysis of change in imaging outcomes was conducted using repeated measures analysis of covariance (ANCOVA) adjusting for baseline in the Intention-to-Treat (ITT) population.
As a safety assessment, MRI scans were used to monitor the presence of focal or diffuse bone marrow edema (BME) in all subjects.
Average cartilage thickness over covered subchondral bone was reported for the following four compartments: medial femoral condyles, lateral femoral condyles, medial tibial plateaus, and lateral tibial plateaus.
FIG. 27 depicts the MRI of a knee joint. To determine average cartilage thickness, the cartilage thickness between the subchondral bone area (400 and 404) and the articular cartilage surface (402 and 406) was measured at numerous (˜400-2000) locations in both directions in the parts covered by cartilage (cAB) and averaged. Measurements were performed in three dimensions. Additionally, the average of the lowest 1% of cartilage thickness was also reported for all 4 compartments. The total for both average thickness and lowest thickness were derived by summing each of the 4 compartments' observations.
Radiographs of the target knee were taken during the screening period and at Week 24 to document change from baseline in joint space width (JSW). Table 52 depicts joint space width as measured by radiography for three dosing cohorts and a placebo group.

[3] = system: Human MSCs; assay: Chondrogenesis induction, Rhodamine B and Nile Red staining; assay type: cell-based
Protocol: Human MSCs were plated in 96-well plates in chondrogenic induction medium (Lonza; DMEM, dexamethasone, ascorbate, insulin-transferrin-selenium [ITS supplement], gentamycin-amphotericin [GA-1000], sodium pyruvate, proline and L-glutamine) and treated with the compound of Formula (I) in DMSO or TGFβ3 (20 μg/mL) as a positive control. Cells were incubated at 37° C., 5% CO2 for either 7 or 21 days, with media changes every 5 days. The cells were fixed using 4% formaldehyde (Electron Microscopy Sciences), and stained with 2 μg/mL Rhodamine B (Sigma-Aldrich) and 20 μM Nile Red (Sigma-Aldrich) (Johnson et al. (2012) Science 336(6082):717-721). The nodules were imaged (25 images per well for 96 well plates at 10× magnification) by excitation at 531 nm and emission at 625 nm and quantified using the Celllnsight CX5 (Thermo Scientific). The number of nodules in each well was normalized to the average of 6 DMSO treated wells on the same plate using Excel (Microsoft Inc.). The normalized averages (fold change over DMSO) of 6 replicate wells for each compound concentration were calculated.

In the case of CC(C)CC(=O)Nc1cncc(-c2ccc3[nH]nc(-c4nc5c(-c6cccc(F)c6)cncc5[nH]4)c3c2)c1 [compound of Formula (I)], the chondrogenic gene expression ([1]; FIG. 18A) is reported as “upregulated”, the osteogenic gene expression ([1]; FIG. 18B) is reported as “downregulated” and the “Bone Marrow Edema [N(%)]: Baseline Diffuse, Week 12 Diffuse” value ([2]; 0.03 mg cohort) is reported as 1 (6%) N(%). The “Bone Marrow Edema [N(%)]: Baseline Diffuse, Week 12 Focal” value ([2]; 0.03 mg cohort) was 1 (6%) N(%), the “Bone Marrow Edema [N(%)]: Baseline Diffuse, Week 12 None” value ([2]; 0.03 mg cohort) was 0 N(%) and the “Bone Marrow Edema [N(%)]: Baseline Focal, Week 12 Diffuse” value ([2]; 0.03 mg cohort) was 0 N(%). For the same compound, the “Bone Marrow Edema [N(%)]: Baseline Focal, Week 12 Focal” value ([2]; 0.03 mg cohort) was 4 (25%) N(%), the “Bone Marrow Edema [N(%)]: Baseline Focal, Week 12 None” value ([2]; 0.03 mg cohort) was 0 N(%) and the “Bone Marrow Edema [N(%)]: Baseline None, Week 12 Diffuse” value ([2]; 0.03 mg cohort) was 0 N(%). The “Bone Marrow Edema [N(%)]: Baseline None, Week 12 Focal” value ([2]; 0.03 mg cohort) was 1 (6%) N(%), the “Bone Marrow Edema [N(%)]: Baseline None, Week 12 None” value ([2]; 0.03 mg cohort) was 9 (57%) N(%) and the “Joint space width by radiograph, Week 24 (mm) Actual [Mean (SD)]” value (“Joint space width … (mm) Actual [Mean (SD)]” for short) ([2]; 0.03 mg cohort, N 15) was 4.50 (1.72) mm. For the same compound, the “Joint space width by radiograph, Week 24 (mm) Change from baseline [Mean (SD)]” value ([2]; 0.03 mg cohort, N 15) was 0.00 (0.69) mm, the “Mean cartilage thickness by MRI, Week 12 (mm) Actual [Mean (SD)]” value ([2]; 0.03 mg cohort, N 16) was 5.38 (1.19) mm and the “Mean cartilage thickness by MRI, Week 12 (mm) Change from baseline [Mean (SD)]” value ([2]; 0.03 mg cohort, N 16) was −0.06 (0.39) mm. For the same compound, the “Mean thinnest cartilage by MRI, Week 12 (mm) Actual [Mean (SD)]” value ([2]; 0.03 mg cohort, N 16) was 3.84 (1.57) mm, the “Mean thinnest cartilage by MRI, Week 12 (mm) Change from baseline [Mean (SD)]” value ([2]; 0.03 mg cohort, N 16) was 0.11 (0.37) mm and the “area of mean thinnest cartilage by MRI” value ([2]; 0.03 mg cohort, Week 12) was “possible trend towards increase”. For the same compound, the “change from baseline in joint space width (radiograph)” value (from here on “change from baseline … (radiograph)”) ([2]; 0.03 mg cohort) was “no change”, the “Bone Marrow Edema [N(%)]: Baseline Diffuse, Week 12 Diffuse” value ([2]; 0.07 mg cohort) was 0 N(%) and the “Bone Marrow Edema [N(%)]: Baseline Diffuse, Week 12 Focal” value ([2]; 0.07 mg cohort) was 1 (6%) N(%). The “Bone Marrow Edema [N(%)]: Baseline Diffuse, Week 12 None” value ([2]; 0.07 mg cohort) was 0 N(%), the “Bone Marrow Edema [N(%)]: Baseline Focal, Week 12 Diffuse” value ([2]; 0.07 mg cohort) was 0 N(%) and the “Bone Marrow Edema [N(%)]: Baseline Focal, Week 12 Focal” value ([2]; 0.07 mg cohort) was 1 (6%) N(%). For the same compound, the “Bone Marrow Edema [N(%)]: Baseline Focal, Week 12 None” value ([2]; 0.07 mg cohort) was 1 (6%) N(%), the “Bone Marrow Edema [N(%)]: Baseline None, Week 12 Diffuse” value ([2]; 0.07 mg cohort) was 0 N(%) and the “Bone Marrow Edema [N(%)]: Baseline None, Week 12 Focal” value ([2]; 0.07 mg cohort) was 2 (13%) N(%). The “Bone Marrow Edema [N(%)]: Baseline None, Week 12 None” value ([2]; 0.07 mg cohort) was 11 (69%) N(%), the “Joint space width … (mm) Actual [Mean (SD)]” value ([2]; 0.07 mg cohort, N 14) was 4.16 (1.64) mm and the “Joint space width by radiograph, Week 24 (mm) Change from baseline [Mean (SD)]” value ([2]; 0.07 mg cohort, N 14, p = 0.006 versus placebo) was 0.59 (0.66)* mm. The “Mean cartilage thickness by MRI, Week 12 (mm) Actual [Mean (SD)]” value ([2]; 0.07 mg cohort, N 16) was 5.37 (0.71) mm, the “Mean cartilage thickness by MRI, Week 12 (mm) Change from baseline [Mean (SD)]” value ([2]; 0.07 mg cohort, N 16) was −0.02 (0.25) mm and the “Mean thinnest cartilage by MRI, Week 12 (mm) Actual [Mean (SD)]” value ([2]; 0.07 mg cohort, N 16) was 3.88 (1.39) mm. For the same compound, the “Mean thinnest cartilage by MRI, Week 12 (mm) Change from baseline [Mean (SD)]” value ([2]; 0.07 mg cohort, N 16) was 0.10 (0.55) mm, the “area of mean thinnest cartilage by MRI” value ([2]; 0.07 mg cohort, Week 12) was “possible trend towards increase” and the “change from baseline … (radiograph)” value ([2]; 0.07 mg cohort) was “increase”. For the same compound, the “Bone Marrow Edema [N(%)]: Baseline Diffuse, Week 12 Diffuse” value ([2]; 0.23 mg cohort) was 2 (13%) N(%), the “Bone Marrow Edema [N(%)]: Baseline Diffuse, Week 12 Focal” value ([2]; 0.23 mg cohort) was 0 N(%) and the “Bone Marrow Edema [N(%)]: Baseline Diffuse, Week 12 None” value ([2]; 0.23 mg cohort) was 0 N(%). The “Bone Marrow Edema [N(%)]: Baseline Focal, Week 12 Diffuse” value ([2]; 0.23 mg cohort) was 0 N(%), the “Bone Marrow Edema [N(%)]: Baseline Focal, Week 12 Focal” value ([2]; 0.23 mg cohort) was 8 (50%) N(%) and the “Bone Marrow Edema [N(%)]: Baseline Focal, Week 12 None” value ([2]; 0.23 mg cohort) was 1 (6%) N(%). The “Bone Marrow Edema [N(%)]: Baseline None, Week 12 Diffuse” value ([2]; 0.23 mg cohort) was 0 N(%), the “Bone Marrow Edema [N(%)]: Baseline None, Week 12 Focal” value ([2]; 0.23 mg cohort) was 1 (6%) N(%) and the “Bone Marrow Edema [N(%)]: Baseline None, Week 12 None” value ([2]; 0.23 mg cohort) was 4 (25%) N(%). The “Mean cartilage thickness by MRI, Week 12 (mm) Actual [Mean (SD)]” value ([2]; 0.23 mg cohort, N 15) was 5.32 (1.03) mm, the “Mean cartilage thickness by MRI, Week 12 (mm) Change from baseline [Mean (SD)]” value ([2]; 0.23 mg cohort, N 15) was −0.04 (0.24) mm and the “Mean thinnest cartilage by MRI, Week 12 (mm) Actual [Mean (SD)]” value ([2]; 0.23 mg cohort, N 15) was 3.01 (1.27) mm. For the same compound, the “Mean thinnest cartilage by MRI, Week 12 (mm) Change from baseline [Mean (SD)]” value ([2]; 0.23 mg cohort, N 15) was −0.13 (0.30) mm, the “Joint space width … (mm) Actual [Mean (SD)]” value ([2]; 0.23 mg cohort, N 16) was 3.47 (1.68) mm and the “Joint space width by radiograph, Week 24 (mm) Change from baseline [Mean (SD)]” value ([2]; 0.23 mg cohort, N 16) was −0.15 (1.07) mm. The “change from baseline … (radiograph)” value ([2]; 0.23 mg cohort) was “decrease”, the “exploratory imaging results, dose comparison” value ([2]; 0.23 mg dose vs 0.03 mg and 0.07 mg doses) was “less effective” and the “effect on bone marrow edema compared to Placebo” value ([2]; single IA injection, interim) was “no appreciable effect”. For the same compound, the “mean cartilage thickness by MRI” value ([2]; treated subjects, Week 12) was “no substantial degradation”, the “subjects with improved BME results (focal to none and diffuse to focal)” value ([2]; treatment groups, baseline to Week 12) was 4 and the chondrocyte colonies/well ([3]; 1.88 nM to 30 nM, FIG. 17) was “dose-dependent chondrogenesis”. The “chondrogenesis (Nile Red and Rhodamine B staining)” value ([3]; human MSCs, 7 or 21 days, fold change over DMSO, FIGS. 16A, 16B) was “dose dependent increase in chondrogenesis”.
